From publication PMC8151276, “An Integrated Approach toward NanoBRET Tracers for Analysis of GPCR Ligand Engagement” (Molecules, 2021)

Key:
Type in all cases: binding
DRD5 = biological target: T1, DRD5 (Homo sapiens, UniProt P21918); test: NanoBRET screen HiBiT-DRD5 in HEK293
T1 construct: purchased Promega (in-house HiBiT-GPCR construct library, NanoBRET)
Experimental: (§1) Each tracer candidate was screened across the entire library of HiBiT-GPCR constructs using NanoBRET as the detection modality. As depicted in Figure 4A, the specificity of interactions was evaluated through decrease in BRET due to competitive displacement of a bound tracer by excess parental compound. Each tracer was analyzed for binding to each HiBiT-GPCR fusion in the absence and in the presence of competing parental compound. Briefly, HEK293 cells were transfected with HiBiT-GPCR constructs diluted into promoterless DNA to reduce expression and maximize translocation to the cell surface. Each tracer candidate was then screened at concentrations of 1 μM and 0.1 μM across cells expressing these fusions. Cells were treated for 1.5 h with tracer either alone or in the presence of 20 μM competing parental compound (i.e., control). BRET was measured upon addition of purified LgBiT and subsequent complementation with HiBiT genetically fused to a GPCR. The specificity of interactions was assessed through a decrease in BRET signal due to competitive displacement of the bound tracer. To further gauge the robustness of these interactions, the fold response over the control (i.e., BRETtracer/BRETcontrol) was calculated. We chose a 1.5-fold response, which translates to ≥7-fold signal over noise as the minimal threshold required to score an interaction as positive. […]. Below we highlight the screening results obtained for our exemplary fluorescent tracers based on Clozapine, Amitriptyline and AZD1283.
(§2) HiBiT-GPCR DNA constructs were diluted in 10 mM Tris pH 8 to a final concentration of 0.01 μg/μL, arrayed in 96-well plates and stored at −20 °C. For transfection, HEK293 cells were suspended in Opti-MEM (without phenol red) supplemented with 2% fetal bovine serum (Seradigm) and 100 units/mL penicillin–streptomycin (Gibco) at a final concentration of 220,000 cells/mL and dispensed into white 96-well plates at 90 μL/well. Subsequent transfections and screens were carried using an Agilent Bravo Automated Liquid Handling Platform. First, the 96-well HiBiT DNA arrays were diluted 25-fold in Opti-MEM (without serum or phenol red) to a final concentration of 0.0004 μg/μL and 20 μL of the diluted DNAs were transferred into new 96-well plates. Next, promoterless carrier DNA (1 μg/μL) was diluted 25-fold (0.04 μg/μL) and then dispensed into the diluted arrays at 20 μL/well. Following brief mixing, Viafect transfection reagent (Promega) diluted 16-fold into Opti-MEM was dispensed into the plates at 40 μL/well. After mixing by pipetting, plates were incubated for 10 min on the pipetting station deck. The DNA-transfection reagent complexes were then added to plates containing cells. To facilitate the screen, 10 μL of DNA-transfection reagent complexes were added in duplicates to the top 4 and bottom 4 rows, resulting in two identical 48-well arrays per plate. Plates with transfected cells were incubated for 18–20 h at 37 °C/5% CO2. A screen of each tracer across the entire library using two different concentrations requires duplicate plates of transfected cells. Depending on the number of tracers being screened, transfections can be scaled up using the same ratios. The next day, for each tracer, four 20× screening solutions in tracer dilution buffer (Promega) were prepared: two duplicates at final concentration of 20 μM and two duplicates at a final concentration of 2 μM. A competing unmodified compound was added to one of each duplicate at a final concentration of 400 μM. The four resulting solutions were diluted 4-fold in Opti-MEM without serum or phenol red to generate 5× solutions (5 µM and 0.5 µM tracer +/− 100 μM competing compound). To screen the library, a BioTek MultiFlo FX liquid dispenser was used to dispense 22.5 µL of tracer solution to the top 4 rows and 22.5 µL tracer + competing compound solution to the 4 bottom rows. Plates were briefly mixed on an orbital shaker and incubated for 1.5 h at room temperature. […]

FPR3 = biological target: T2, FPR3 (Homo sapiens, UniProt P25089); test: NanoBRET screen HiBiT-FPR3 in HEK293
T2 construct: purchased Promega (in-house HiBiT-GPCR construct library, NanoBRET)
T2 sequence (P25089 1-353): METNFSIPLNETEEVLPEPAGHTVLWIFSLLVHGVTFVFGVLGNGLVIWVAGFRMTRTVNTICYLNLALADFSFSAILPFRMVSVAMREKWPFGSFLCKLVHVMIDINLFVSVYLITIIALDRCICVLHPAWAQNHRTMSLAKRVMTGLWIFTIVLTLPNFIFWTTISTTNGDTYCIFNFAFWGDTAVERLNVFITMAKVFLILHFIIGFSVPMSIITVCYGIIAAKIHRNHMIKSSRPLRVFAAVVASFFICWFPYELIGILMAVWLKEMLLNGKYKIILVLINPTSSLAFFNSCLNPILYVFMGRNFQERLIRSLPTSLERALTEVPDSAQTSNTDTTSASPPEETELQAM
Experimental: as §1, §2

P2RY11 = biological target: T3, P2RY11 (Homo sapiens, UniProt Q96G91); test: NanoBRET screen HiBiT-P2RY11 in HEK293
T3 construct: purchased Promega (in-house HiBiT-GPCR construct library, NanoBRET)
T3 sequence (Q96G91 1-374): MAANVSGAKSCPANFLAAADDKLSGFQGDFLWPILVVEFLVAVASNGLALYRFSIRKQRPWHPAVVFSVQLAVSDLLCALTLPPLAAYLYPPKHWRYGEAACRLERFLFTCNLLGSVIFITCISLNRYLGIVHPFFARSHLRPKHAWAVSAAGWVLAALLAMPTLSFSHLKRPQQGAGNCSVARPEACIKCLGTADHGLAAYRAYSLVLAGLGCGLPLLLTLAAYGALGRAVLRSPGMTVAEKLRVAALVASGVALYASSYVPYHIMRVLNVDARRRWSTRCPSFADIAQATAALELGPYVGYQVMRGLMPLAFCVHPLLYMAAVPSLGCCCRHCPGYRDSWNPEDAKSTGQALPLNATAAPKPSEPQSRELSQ
Experimental: as §1, §2

FZD8 = biological target: T4, FZD8 (Homo sapiens, UniProt Q9H461); test: NanoBRET screen HiBiT-FZD8 in HEK293
T4 construct: purchased Promega (in-house HiBiT-GPCR construct library, NanoBRET)
Experimental: as §1, §2

SSTR2 = biological target: T5, SSTR2 (Homo sapiens, UniProt P30874); test: NanoBRET screen HiBiT-SSTR2 in HEK293
T5 construct: purchased Promega (in-house HiBiT-GPCR construct library, NanoBRET)
Experimental: as §1, §2

[1] = tracer at 0.1μM, listed as amitriptyline-b-2-NB590
[2] = tracer at 1μM, listed as amitriptyline-b-2-NB590

T4 sequence (Q9H461 28-694): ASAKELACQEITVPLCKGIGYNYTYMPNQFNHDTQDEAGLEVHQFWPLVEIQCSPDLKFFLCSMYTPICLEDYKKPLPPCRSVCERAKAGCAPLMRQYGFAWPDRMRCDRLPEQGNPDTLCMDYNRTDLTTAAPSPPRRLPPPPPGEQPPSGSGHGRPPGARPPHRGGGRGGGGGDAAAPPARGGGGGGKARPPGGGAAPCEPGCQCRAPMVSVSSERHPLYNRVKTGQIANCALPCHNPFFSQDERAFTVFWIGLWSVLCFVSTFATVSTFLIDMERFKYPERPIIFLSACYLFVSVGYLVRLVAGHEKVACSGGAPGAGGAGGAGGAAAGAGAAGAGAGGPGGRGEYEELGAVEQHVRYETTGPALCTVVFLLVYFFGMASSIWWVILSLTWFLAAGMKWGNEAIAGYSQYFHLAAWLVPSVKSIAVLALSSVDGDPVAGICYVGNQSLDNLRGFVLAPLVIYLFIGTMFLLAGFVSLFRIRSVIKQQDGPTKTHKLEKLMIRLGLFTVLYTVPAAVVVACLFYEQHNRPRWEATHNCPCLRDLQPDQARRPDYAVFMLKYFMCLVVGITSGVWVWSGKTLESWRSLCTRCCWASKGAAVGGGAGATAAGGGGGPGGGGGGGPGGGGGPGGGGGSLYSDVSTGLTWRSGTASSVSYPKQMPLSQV
T1 sequence (P21918 whole entry): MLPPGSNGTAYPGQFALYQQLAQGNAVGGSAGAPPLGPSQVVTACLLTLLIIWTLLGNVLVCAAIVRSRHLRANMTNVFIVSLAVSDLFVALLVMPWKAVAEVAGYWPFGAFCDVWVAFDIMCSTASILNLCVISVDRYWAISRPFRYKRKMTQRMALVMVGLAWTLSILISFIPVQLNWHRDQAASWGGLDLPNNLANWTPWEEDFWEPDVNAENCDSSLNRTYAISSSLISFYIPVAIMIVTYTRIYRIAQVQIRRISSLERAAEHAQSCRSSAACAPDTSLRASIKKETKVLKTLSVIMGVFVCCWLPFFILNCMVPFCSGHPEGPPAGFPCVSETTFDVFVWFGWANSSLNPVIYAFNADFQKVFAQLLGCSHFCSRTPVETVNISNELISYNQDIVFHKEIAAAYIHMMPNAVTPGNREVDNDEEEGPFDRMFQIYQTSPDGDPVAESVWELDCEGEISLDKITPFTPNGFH
T5 sequence (P30874 whole entry): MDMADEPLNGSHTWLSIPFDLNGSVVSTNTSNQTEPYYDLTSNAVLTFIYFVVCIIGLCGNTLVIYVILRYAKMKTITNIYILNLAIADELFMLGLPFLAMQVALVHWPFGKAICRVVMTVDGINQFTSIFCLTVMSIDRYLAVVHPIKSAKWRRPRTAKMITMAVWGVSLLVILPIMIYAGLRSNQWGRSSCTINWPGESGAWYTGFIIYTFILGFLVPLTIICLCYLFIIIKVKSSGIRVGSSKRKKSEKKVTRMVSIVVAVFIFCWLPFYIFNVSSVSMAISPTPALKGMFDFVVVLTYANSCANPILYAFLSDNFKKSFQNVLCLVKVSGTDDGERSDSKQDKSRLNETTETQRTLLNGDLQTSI

Row | SMILES | NanoBRET Fold Response (DRD5; DRD5, tracer 0.1μM) | NanoBRET Fold Response (DRD5; DRD5, tracer 1μM) | NanoBRET Fold Response (FPR3; FPR3, tracer 0.1μM) | NanoBRET Fold Response (FPR3; FPR3, tracer 1μM) | NanoBRET Fold Response (P2RY11; P2RY11, tracer 0.1μM) | NanoBRET Fold Response (P2RY11; P2RY11, tracer 1μM) | NanoBRET Fold Response (FZD8; FZD8, tracer 0.1μM) | NanoBRET Fold Response (FZD8; FZD8, tracer 1μM) | NanoBRET Fold Response (SSTR2; SSTR2, tracer 0.1μM) | NanoBRET Fold Response (SSTR2; SSTR2, tracer 1μM) | further results
1 | Cc1nc2n(c(=O)c1CCN1CCC(c3noc4cc(F)ccc34)CC1)CCCC2OC(=O)NCCOCCOCCOCCOCCNC(=O)CCc1ccc2n1[B-](F)(F)[N+]1=C(c3ccc[nH]3)C=CC1=C2 (stereo not shown) [Risperidone-2-NB590] | 1.92 | 2.44 | 0.98 | 0.94 | 1.04 | 0.88 | 1.02 | 1.12 | 0.98 | 1.01 | 
2 | CCOC(=O)c1cc(C#N)c(N2CCC(C(=O)NS(=O)(=O)Cc3ccccc3/C=C/C(=O)NCCNC(=O)CCc3ccc4n3[B-](F)(F)[N+]3=C(c5ccc[nH]5)C=CC3=C4)CC2)nc1C [AZD1283-1-NB590] |  |  |  |  |  |  |  |  |  |  | NanoBRET Fold Response (DRD5; DRD5, 0.1μM): 1.02; NanoBRET Fold Response (DRD5; DRD5, 1μM): 1.13; NanoBRET Fold Response (FPR3; FPR3, 0.1μM): 1.08; NanoBRET Fold Response (FPR3; FPR3, 1μM): 1.06; NanoBRET Fold Response (P2RY11; P2RY11, 0.1μM): 1.09; NanoBRET Fold Response (P2RY11; P2RY11, 1μM): 1.04; NanoBRET Fold Response (FZD8; FZD8, 0.1μM): 1.11; NanoBRET Fold Response (FZD8; FZD8, 1μM): 0.71; NanoBRET Fold Response (SSTR2; SSTR2, 0.1μM): 1.02; NanoBRET Fold Response (SSTR2; SSTR2, 1μM): 1.09
3 | Cc1cc2c(s1)Nc1ccccc1N=C2N1CCN(CCCNC(=O)CCOCCOCCOCCOCCNC(=O)CCc2ccc3n2[B-](F)(F)[N+]2=C(c4ccc[nH]4)C=CC2=C3)CC1 [Olanzapine-a-2-NB590] | 1.20 | 2.53 | 0.92 | 0.96 | 1.00 | 0.89 | 0.95 | 0.94 | 1.03 | 0.96 | 
4 | COc1ccccc1N1CCN(CCCCN2C(=O)c3ccc(CNC(=O)CCOCCNC(=O)c4ccc(CNC(=O)CCc5ccc6n5[B-](F)(F)[N+]5=C(c7ccc[nH]7)C=CC5=C6)cc4)cc3C2=O)CC1 [NAN-190-3-NB590] | 1.05 | 1.42 | 1.28 | 0.99 | 1.05 | 0.96 | 1.20 | 0.87 | 1.00 | 1.10 | 
5 | CC(C)N(CC[C@H](c1ccccc1)c1cc(CCNC(=O)CCOCCOCCOCCOCCNC(=O)CCc2ccc3n2[B-](F)(F)[N+]2=C(c4ccc[nH]4)C=CC2=C3)ccc1O)C(C)C [Tolterodine-2-NB590] | 1.01 | 1.04 | 1.60 | 0.92 | 1.31 | 0.83 | 1.07 | 1.12 | 1.04 | 1.00 | 
6 | CN(C)CCC=C1c2ccccc2CCc2ccc(C(=O)NCCNC(=O)CCOCCOCCOCCOCCNC(=O)CCc3ccc4n3[B-](F)(F)[N+]3=C(c5ccc[nH]5)C=CC3=C4)cc21 [Amitriptyline-b-2-NB590] |  |  |  |  |  |  |  |  |  |  | NanoBRET Fold Response (DRD5; [1]): 1.08; NanoBRET Fold Response (DRD5; [2]): 1.42; NanoBRET Fold Response (FPR3; [1]): 1.27; NanoBRET Fold Response (FPR3; [2]): 1.02; NanoBRET Fold Response (P2RY11; [1]): 0.88; NanoBRET Fold Response (P2RY11; [2]): 0.96; NanoBRET Fold Response (FZD8; tracer at 0.1μM): 1.03; NanoBRET Fold Response (FZD8; tracer at 1μM): 1.00; NanoBRET Fold Response (SSTR2; tracer at 1μM): 0.99
7 | O=C(CCOCCOCCOCCOCCNC(=O)CCc1ccc2n1[B-](F)(F)[N+]1=C(c3ccc[nH]3)C=CC1=C2)NCCCN1CCN(C2=Nc3ccccc3Oc3ccc(Cl)cc32)CC1 [Loxapine-a-2-NB590] | 1.25 | 2.20 | 1.02 | 1.07 | 1.02 | 0.94 | 0.95 | 1.01 | 1.03 | 1.31 | 
8 | CN(C)CCC=C1c2ccccc2CCc2ccc(C(=O)NCCNC(=O)CCOCCOCCOCCOCCNC(=O)CCc3ccc4n3[B-](F)(F)[N+]3=C(c5ccc[nH]5)C=CC3=C4)cc21 [Amitriptyline-a-2-NB590] |  |  |  |  |  |  |  |  |  |  | NanoBRET Fold Response (DRD5; tracer at 0.1μM): 1.11; NanoBRET Fold Response (DRD5; tracer at 1μM): 1.12; NanoBRET Fold Response (FPR3; tracer at 0.1μM): 0.96; NanoBRET Fold Response (FPR3; tracer at 1μM): 1.07; NanoBRET Fold Response (P2RY11; tracer at 0.1μM): 1.13; NanoBRET Fold Response (P2RY11; tracer at 1μM): 1.07; NanoBRET Fold Response (SSTR2; tracer at 0.1μM): 1.03; NanoBRET Fold Response (SSTR2; tracer at 1μM): 1.03
9 | O=C(CCc1ccc2n1[B-](F)(F)[N+]1=C(c3ccc[nH]3)C=CC1=C2)NCCOCCOCCNC(=O)OCCOCCN1CCN(C2=Nc3ccccc3Sc3ccccc32)CC1 [Quetiapine-a-2-NB590] | 1.09 | 1.43 | 1.28 | 0.66 | 1.05 | 0.91 | 1.02 | 1.08 | 1.03 | 0.77 | 
10 | N#CN/C(=N\CCNC(=O)c1ccc(N)cc1)NCCCOc1cccc(CN2CCCCC2)c1 [Aminopotentidine (unmodified)] |  |  |  |  |  |  |  |  |  |  | NanoBRET Fold Response (DRD5; DRD5, other tracers/Aminopotentidine (unmodified), 0.1μM): 1.08; NanoBRET Fold Response (DRD5; DRD5, other tracers/Aminopotentidine (unmodified), 1μM): 1.09
11 | CN(CCC=C1c2ccccc2CCc2ccccc21)C(=O)CCOCCOCCOCCOCCNC(=O)CCc1ccc2n1[B-](F)(F)[N+]1=C(c3ccc[nH]3)C=CC1=C2 [Amitriptyline-e-2-NB590] |  |  |  |  |  |  |  |  |  |  | NanoBRET Fold Response (DRD5; tracer at 1μM): 1.11; NanoBRET Fold Response (P2RY11; tracer at 1μM): 1.13
